Reference: PubChem BioAssay (NCI)
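Test compounds were applied to cells in 96-well plates for 48 hours at 5 doses. TGI marks complete inhibition of growth.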

Assays:
Experiment in all cases: NCI tumour cell line growth inhibition, 48 h
OVCAR-3 ovarian = system: OVCAR-3 ovarian
NCI-H23 lung = system: NCI-H23 lung
DU-145 prostate = system: DU-145 prostate
CCRF-CEM leukemia = system: CCRF-CEM leukemia
OVCAR-5 ovarian = system: OVCAR-5 ovarian
SN12C renal = system: SN12C renal
PC-3 prostate = system: PC-3 prostate
MDA-MB-435 = system: MDA-MB-435
MCF7 breast = system: MCF7 breast
M14 melanoma = system: M14 melanoma
NCI-H226 lung = system: NCI-H226 lung
SNB-19 CNS = system: SNB-19 CNS
LOX IMVI melanoma = system: LOX IMVI melanoma
786-0 renal = system: 786-0 renal
RXF 393 renal = system: RXF 393 renal
MOLT-4 leukemia = system: MOLT-4 leukemia

Row | Compound | TGI (OVCAR-3 ovarian) | TGI (NCI-H23 lung) | TGI (DU-145 prostate) | TGI (CCRF-CEM leukemia) | TGI (OVCAR-5 ovarian) | TGI (SN12C renal) | TGI (PC-3 prostate) | TGI (MDA-MB-435) | TGI (MCF7 breast) | TGI (M14 melanoma) | TGI (NCI-H226 lung) | TGI (SNB-19 CNS) | TGI (LOX IMVI melanoma) | TGI (786-0 renal) | TGI (RXF 393 renal) | TGI (MOLT-4 leukemia)
1 | CCN(CC)c1ccc2cc(-c3nnc(-c4ccccc4)o3)c(=O)oc2c1 | 37.1 µM | > 100 µM | > 100 µM | > 100 µM | > 100 µM | > 100 µM | > 100 µM | > 100 µM | > 100 µM | > 100 µM | > 70.7 µM | > 80.9 µM | > 100 µM | > 82.1 µM | > 52.5 µM | 
2 | CC1=C(C(N)=O)C(c2ccncc2)C(C#N)=C2SCC(=O)N12 (configuration not stated) | > 100 µM | > 100 µM | > 100 µM | > 100 µM | > 100 µM | > 100 µM | > 100 µM | > 100 µM | > 100 µM | > 100 µM | > 100 µM | > 100 µM |  | > 100 µM | > 100 µM | > 100 µM
3 | CC(=O)c1sc2c(c1OC(=O)c1cccs1)c(=O)n(-c1ccccc1)c(=S)n2-c1ccccc1 | 50.4 µM | 40.9 µM | 57.8 µM | 22.6 µM | 13.2 µM | 15.1 µM | 15.2 µM | 20.8 µM | 56.4 µM | 10.6 µM | 9.84 µM | 44.8 µM | 17.2 µM | 15.5 µM | 18.6 µM | 60.8 µM
4 | C[C@]12CCC(=O)C=C1CC[C@@H]1C2CC[C@]2(C)c3nn(-c4ccc(F)cc4)nc3CC12 (some centres not stated) | > 100 µM | > 100 µM | > 100 µM | > 100 µM | > 100 µM | > 100 µM | > 100 µM | > 100 µM | > 100 µM | > 100 µM | > 100 µM | > 100 µM |  | > 100 µM | > 100 µM | > 100 µM
5 | CN(C)C(=O)NCCN1CCCCCc2ccccc21 | > 100 µM | > 100 µM | > 100 µM | > 100 µM | > 100 µM | > 100 µM | > 100 µM | > 100 µM | > 100 µM | > 100 µM | > 100 µM | > 100 µM | > 100 µM |  | > 100 µM | > 100 µM
6 | CN(Nc1cc(=O)[nH]c(=O)[nH]1)c1ccccc1 | > 100 µM | > 100 µM | > 100 µM | > 100 µM | > 100 µM | > 100 µM | > 100 µM | > 100 µM | > 100 µM | > 100 µM | > 100 µM | > 100 µM | > 100 µM | > 100 µM | > 100 µM | > 100 µM
